# Values quoted from earlier work as cited in patent US7427493B2, “Recombinant genes for polyketide modifying enzymes” (Kosan Biosciences Incorporated, priority 2002, dated 2008).
# Test system: parasites
# Details: background statement
smiles,measurement,value
CC[C@H]1OC(=O)[C@H](C)[C@@H](O[C@H]2C[C@@](C)(OC)[C@@H](O)[C@H](C)O2)[C@H](C)[C@@H](O[C@@H]2O[C@H](C)C[C@H](N(C)C)[C@H]2O)[C@](C)(O)C[C@@H](C)C(=O)[C@H](C)[C@@H](O)[C@]1(C)O [erythromycin],antiparasitic activity,does not have antiparasitic activity
